Reference: US11497740B2, “Use of Jumonji C demethylase inhibitors for the treatment and prevention of chemotherapy resistance and radioresistance in cancer” (THE BOARD OF REGENTS OF THE UNIVERSITY OF TEXAS SYSTEM, priority 2016, dated 2022)

Assays:
[1] = tested on: pro-apoptotic/anti-proliferative genes and proliferative/oncogenic genes; test: qRT-PCR of pro-apoptotic and proliferative genes in treated H1299 T18 cells; type: cell-based, human; conditions: 24 h; JIB-04 0.2 μM or GSK-J4 1 μM
Source text: Total RNA was isolated using RNeasy Plus Mini kit (Qiagen) and cDNA was generated using iScript cDNA synthesis kit (BioRad). For epigenetic enzymes, transcripts were detected by SYBR Green chemistry in real time quantitative PCR assays using validated primers. TBP and GAPDH were used as endogenous controls. […] For all non-epigenetic transcripts, TaqMan probes (Life Technologies) were utilized in multiplex with GAPDH internal reference gene. Additionally, a reference sample containing pooled RNA from normal human and tumor tissues (Stratagene) was used. PCR reactions were run using the ABI 7300 Real-time PCR System and analyzed with the included software. The comparative CT method was used to compute relative mRNA expression.

[2] = tested on: H3K27me3 demethylase activity; test: Histone demethylase activity in tumor lysates by ELISA (H3K27me3); type: in vivo; conditions: H1299 T18 xenografts, drug-treated vs vehicle
Source text: (§1) To evaluate whether the targeted KDM enzymatic activity was reduced in the JmjC inhibitor-treated tumors in vivo, the inventors measured histone demethylase activity in drug-treated and vehicle-control tumor lysates by ELISA. […] Altogether, the results confirmed reduction of the targeted KDM enzymatic activity with cytostatic/cytotoxic effects in JmjC inhibitor-treated chemoresistant xenografts.

[3] = tested on: H1299 T18 chemo-resistant cells; test: Colony formation, combination with paclitaxel+carboplatin; type: cell-based, human; conditions: positive ΔBliss
Experimental: All statistical tests including two-way ANOVA with Sidak's multiple comparisons test, one-way ANOVA with Dunnett's multiple comparisontest, post-test for linear trend and unpaired t-tests were performed using GraphPad Prism 6.00. P values are represented as *P<0.05, **P<0.01, ***P<0.001 and ****P<0.0001. For drug treatments, dose response curves and IC50 values were calculated using GraphPad Prism or in-house DIVISA (Database of InVItro Sensitivity Assays; L. Girard). For drug combination in colony formation, delta Bliss excess was calculated as shown previously (Wilson et al., 2014). Bliss expectation was calculated as A+B−(A×B), where A and B denote the fractional responses from drugs A and B given individually. The difference between Bliss expectation and observed response from combination of drugs A and B at the same doses is the delta Bliss excess.
400 cells were seeded per well in six well plates and treated with various drug concentrations the next day. After 2-3 weeks, colonies were stained with 0.5% crystal violet, 3% formaldehyde solution and counted both manually and automatically using Quantity One image analysis software (Bio-Rad).

[4] = tested on: H3K4me3 demethylase activity; test: Histone demethylase activity in tumor lysates by ELISA (H3K4me3); type: in vivo; conditions: H1299 T18 xenografts, drug-treated vs vehicle
Source text: as §1

[5] = tested on: γH2AX foci; test: Immunofluorescence DSB repair kinetics, γH2AX foci; type: cell-based, Human
Experimental: (§2) NSCLCs were seeded onto Lab-Tek II Chamber Slides (Thermo Fisher) and 24 hours later pretreated with JIB-04 or DMSO for 4 h. Then cells were exposed to a total dose of 2 Gy (γH2AX and 53BP1) or 10 Gy (RAD-51 and DNAPKcs p-T2609) radiation. For knockdown and overexpression experiments H1299 cells were transfected using the Amaxa Nucleofector; program X-005. Specifically, 3×10^6 were transfected with siRNA duplexes targeting JMJD2A, JMJD2B, Jarid1A, Jarid1b, scrambled siRNA (250 nM final concentration) or expression vectors pCMVHA-JMJD2A, pCMVHA-JMJD2B, pCMVHA-Jarid1A, pCMVHA-Jarid1B, PC-2 for 72 hours, followed by quantification of expression or irradiation. Then, cells were fixed in 4% formaldehyde/PBS for 15 min, permeabilized with 0.5% Triton X-100 for 15 min on ice, and blocked with 5% bovine serum albumin in PBS for 1 h. The slides were incubated with an antibody against phospho-Histone γH2AX (1:1000, 3 h at room temperature), 53BP1 (1:500, 3 h at room temperature), Rad-51 (1:500, 48 hs 4° C.) or DNAPKcs p-T2609 (1:500, 48 hs 4° C.). Alexa Fluor 488-conjugated goat anti-Rabbit, […] goat anti-mouse or rhodamine red-conjugated goat anti-mouse secondaries antibodies were used (1:1000, 1 h at room temperature). Slides were mounted in a Vectashield mounting medium containing 4′,6-diamidino-2-phenylindole (DAPI). Cells were analyzed on a Zeiss upright fluorescent microscope.

[6] = tested on: H1299 T18 cells; test: Microarray gene expression after 24 h treatment, H1299 T18 cells; type: cell-based, human; conditions: for expression difference of top up-regulated gene / gene expression changes (total probes): 24 h; for expression difference of top up-regulated gene / gene expression changes (total probes) / Illumina probes reversed in expression / genes reversed in expression: 0.2 μM JIB-04 or 1 μM GSK-J4; for gene expression changes (total probes): fold changes ≥1.5, P ≤0.05; for Illumina probes reversed in expression / genes reversed in expression: reversal of changes acquired with taxane-platin resistance
Experimental: Gene expression profiling was performed using Illumina HumanWG-6 V3 BeadArrays (for NSCLC patient tumors) or Illumina HumanHT-12 V4 BeadArrays (for cell lines and xenografts). […] Data were pre-processed using the R package mbcb for background correction (Ding et al., 2008), then log-transformed and quantile-normalized with the R package preprocessCore or using in-house MATRIX software ([…]). Microarray data can be found under GEO accession GSE77209. Log ratios, unpaired t-test p values and color-coded heat maps were obtained using MATRIX. For comparisons involving progressively resistant cell line series, analyses were performed using R package by fitting linear regression model on gene expression data against the log transformed IC50 values as measures of drug response. We fitted beta-uniform mixture model to a set of p-values using the R package ClassComparison. […] For xenograft data, differential gene expression analysis was performed by student's t-test. Using 35 gene signature, unsupervised hierarchical clustering (Eisen et al., 1998) was performed to separate neoadjuvant chemotherapy treated patients into two groups. Clustering was based on Euclidean distance matrix and maximum linkage method. Kaplan-Meier survival analysis and multivariate Cox regression were performed by R survival package and replotted using Graphpad Prism 6.00 (GraphPad Software, La Jolla, Calif. USA). R code is provided in […] report.

[7] = tested on: 53BP1 foci; test: Immunofluorescence DSB repair kinetics, 53BP1 foci; type: cell-based, Human; conditions: for 53BP1 foci resolution: H1299 and A549, 4 h pretreatment, then IR
Experimental: as §2

SMILES	pro-apoptotic/anti-proliferative gene expression [1]	proliferative/oncogenic gene expression [1]	H3K27me3 demethylase activity in tumor lysates [2]	colony formation in combination with paclitaxel+carboplatin [3]	H3K4me3 demethylase activity in tumor lysates [4]	defects in γH2AX foci resolution ([5]; H1299 and A549, 4 h pretreatment, then IR)	expression difference of top up-regulated gene [6]	gene expression changes (total probes) [6]	Illumina probes reversed in expression [6]	genes reversed in expression [6]	53BP1 foci resolution [7]	γH2AX foci remaining unresolved at late time points ([5]; H1299 and A549, 4 h pretreatment with colony formation IC50 dose, then IR)	γH2AX foci formation and resolution ([5]; normal HBEC30KT cells, 500 nM JIB-04, 2 Gy)	γH2AX foci resolution ([5]; prostate cancer cell line LNCap, JIB-04 and IR, data not shown)	top reversed down-regulated gene, fold change (down) ([6]; LEAP2 for JIB-04, TAF9B for GSK-J4)	top reversed up-regulated gene, fold change (up) ([6]; YPEL2 for JIB-04, BNIP3 for GSK-J4)	53BP1 foci formation and resolution ([7]; HCC-95 cells, 35 nM JIB-04 4 h, 2 Gy)
CCOC(=O)CCNc1cc(N2CCc3ccccc3CC2)nc(-c2ccccn2)n1 [GSK-J4]	up-regulated	downregulated	significantly inhibited H3K27me3 demethylase activity	synergistic inhibition of colony formation	without reducing H3K4me3 or H3K9me3 demethylase activity	not observed	~25 fold	710 probes	110 probes	108 genes	not observed						
Clc1ccc(N/N=C(\c2ccccc2)c2ccccn2)nc1 [JIB-04]	up-regulated	downregulated	significantly inhibited	synergistic inhibition of colony formation	significantly inhibited		~16 fold	1469 probes	About 195 probes	187 genes	defective	> 30%	no defects	defects in γH2AX foci resolution	~5 fold	~16 fold	delayed 53BP1 foci formation and resolution
